According to patent publication US20180098950A1, “INHIBITORS OF ABETA AND SYNUCLEIN AGGREGATION” (The Feinstein Institute For Medical Research, priority 2006, published 2018):
“And” between values parts separate entries of the source, which are not always exact repeats. Identical values can stand only once. “Also recorded” adds a separate entry of the source. Like-named read-outs stand apart in the source and are kept apart here.

Assays:
[1] = tested on: APP-expressing TgCRND8 mice; experiment: Aβ plaque burden by immunohistochemistry and image analysis in TgCRND8 mice; format: in vivo, mouse; conditions: 8 mg/kg i.p. twice a week for 8 weeks, vs vehicle
Description: Animals. All animal procedures were approved by the office of the district president and the institutional animal care and use committee for the University of Munster. We used the TgCRND8 mouse line (courtesy of David Westaway, University of Toronto, Toronto, Ontario, Canada). TgCRND8 mice encode a double mutant form of amyloid precursor protein 695 (KM670/671 NL+V717F) under the control of the PrP gene promoter (Chishti et al., 2001). Thioflavine S-positive Aβ amyloid deposits are present at 3 months, with dense-cored plaques and neuritic pathology evident from 5 months of age.
(§1) Drug treatment of TgCRND8 mice. APP transgenic TgCRND8 mice at 4 months old received twice a week an i.p. injection of 200 μl containing 200 μg CNI-1493 (8 mg/kg) for 8 weeks. There were four animals in each treatment group. Animals were housed singly in individual cages. At the end of the experimental period, animals were killed by decapitation. The brain was dissected and the hemispheres separated along the midline. One hemisphere was fixed in 4% buffered formaldehyde for 24 h followed by dehydration and paraffin embedding. The other hemisphere was immediately snap-frozen in liquid nitrogen and kept at −80° C.
Immunohistochemistry. Three pairs of 2 μm sagittal brain sections of each transgenic animal were stained for Aβ immunoreactivity. The pairs (10 μm distance) were situated 100 μm, 200 μm and 300 μm lateral from the mid-sagittal fissure. All slices were pretreated with formic acid and automatically stained in a TechMate Instrument (Dako Cytomation, Hamburg, Germany) with 6F/3D anti-Aβ monoclonal antibody to residues 8-17 (Dako, 1:100). For further steps, the Dako StreptABC complex-horseradish peroxidase conjugated “Duet” anti mouse/rabbit antibody kit was used and developed with 3, 3′-diaminobenzidine (DAB) as chromogen. Counterstaining was performed with hematoxylin. All slides were stained in two consecutive procedures making sure that brains of both experimental groups were equally distributed in both procedures.
Image analysis. To quantify Aβ plaque burden, cortices and hippocampi of all stained sections were digitalized by a ColorView II, 3, 3 Mega Pixel CCD camera under constant light and filter settings. Color images were converted to greyscale to obtain best contrast between positive immunoreactivity and background. A constant threshold was chosen for all images to detect immunoreactive staining.
Morphometric measurements were performed by image analysis software “SIS analysis Auto Software 3.2” (Soft Imaging System GmbH, http://www.soft-imaging.org/). Total number and surface of plaques was related to the total area analyzed.

F4/80 antigen = experiment: Western blot of F4/80 (microglial activation) in brain of treated TgCRND8 mice; format: in vivo, mouse; conditions: 8 mg/kg i.p. twice a week for 8 weeks, vs control
Description: as §1
Biochemical analysis. Half of the brain was weighed and homogenized in an appropriate volume of T-PER (Perbio, Bonn, Germany) in accordance to the guidelines of the manufacturer. Lysate protein concentration was measured by BCA kit (Perbio). 15-60 μg protein per sample was loaded onto a pre-cast NuPAGE Novex 4-12% Bis-Tris gel and separated using the Novex electrophoresis system (Invitrogen, Karsruhe, Germany). Subsequently, the proteins were transferred onto nitrocellulose membranes (Invitrogen) using the XCell II™ blot (Invitrogen). The immobilized proteins were visualized using MemCode reversible protein staining kit (Perbio). […] Equal protein loading of all membranes was assessed by reprobing with monoclonal antibodies against GAPDH (Acris, Hiddenhausen, Germany).

[2] = tested on: N2a cells expressing wild type APP695; experiment: APP processing analysis in N2a cells; format: cell-based; conditions: 24 h treatment
Description: APP processing analysis in N2a cells. APP695-transfected N2a cells (Marambaud et al., 2005) were grown in 1:1 DMEM/Opti-MEM supplemented with 5% FBS, penicillin and streptomycin, and 0.2 mg/ml G418. Cells were treated at confluency for 24 h with the indicated concentrations of CNI-1493. Medium was then changed and treatments were continued for another 2 h to allow Aβ secretion. Twenty microliters of conditioned medium were electrophoresed on 16.5% Tris-Tricine gels and transferred onto […] nitrocellulose membranes. Membranes were then microwaved for 5 min in PBS, blocked in 5% fat-free milk in TBS, and incubated with 6E10 (Signet, 1:1000 in Pierce SuperBlock) overnight at 4° C. Cells were washed with PBS and solubilized in ice-cold HEPES buffer (25 mM HEPES, pH 7.4, 150 mM NaCl, 1× Complete protease inhibitor cocktail, Roche) containing 1% SDS. Ten micrograms of extracts were analyzed by western blot with 6E10, R1 (anti-APP C-terminal domain, reference 21), and LN27 (anti-APP1-200, Zymed).

Aβ42 [3] = biological target: T1, Aβ42 (Homo sapiens, UniProt P05067); experiment: Anti-oligomer antibody ELISA, Aβ42
T1 construct: less abundant 42-amino acid form (Aβ42)

Aβ40 = biological target: T2, Aβ40 (Homo sapiens, UniProt P05067); experiment: Anti-oligomer antibody ELISA, Aβ40
T2 construct: The 40-amino acid form (Aβ340) is the most abundantly produced Aβ peptide

synuclein = synuclein (Homo sapiens, UniProt P37840); experiment: Anti-oligomer antibody ELISA, synuclein
Description: The ability of CNI-1493 to prevent aggregation of synuclein was tested by determining the recognition of synuclein by an anti-oligomer antibody (gift of Dr. C. Glabe, University of California at Irvine) in an ELISA assay.

Aβ42 [4] = biological target: T1, Aβ42; experiment: Aβ oligomer ELISA with various concentrations of CNI-1493; conditions: Aβ42 with increasing concentrations of CNI-1493
Source text: Aβ42 was combined with various concentrations of CNI-1493 and Aβ oligomers were quantified by ELISA using Aβ oligomer-specific antibodies.

Aβ42 [5] = biological target: T1, Aβ42; experiment: Electron microscopy of Aβ42 oligomer fibrilization; conditions: Aβ42 oligomers with vs without CNI-1493
primary neurons = experiment: Aβ toxicity in primary neurons; format: cell-based
Source text: To determine whether the CNI-1493-treated form of Aβ is toxic, Aβ that had been pretreated with, or without, CNI-1493 was combined with SY5Y neuroblastoma cells. Toxicity was monitored using MTT (thiazolyl blue) reduction (mitochondrial succinate dehydrogenase activity) and lactate dehydrogenase activity (LDH). The MTT and LDH assays correlated with each other. […] Additionally, the protective effect of CNI-1493 was examined in similar assays using primary neurons.

T1 sequence (P05067 672-713 limits assumed): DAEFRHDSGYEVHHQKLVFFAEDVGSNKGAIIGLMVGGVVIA
T2 sequence (P05067 672-711 limits assumed): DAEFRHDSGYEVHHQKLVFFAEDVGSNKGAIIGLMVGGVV

Row | Structure (SMILES) | reduction of plaque area (square micrometers per area of interest in square mm) ([1]; cortex) [%] | reduction of plaque number (plaques per area of interest in square mm) ([1]; cortex) [%] | reduction of plaque number (plaques per area of interest in square mm) ([1]; hippocampus) [%] | reduction of plaque area (square micrometers per area of interest in square mm) ([1]; hippocampus, 8 mg/kg) | microglial activation, F4/80 expression in brain (western blot) (F4/80 antigen) | full length APP production (LN27) [2] | β- or γ-secretase cleavage of APP (C99, C83 fragments) [2] | total Aβ secreted into the medium (western blot, 6E10) ([2]; then medium change and continued treatment) | recognition by anti-oligomer antibody (aggregation) (Aβ42 [3]) | recognition by anti-oligomer antibody (aggregation) (Aβ42 [3]; listed as CNI-1492) | recognition by anti-oligomer antibody (aggregation) (Aβ40) | recognition by anti-oligomer antibody (aggregation) (Aβ40; listed as CNI-1492) | recognition by anti-oligomer antibody (aggregation) (synuclein) | recognition by anti-oligomer antibody (aggregation) (synuclein; listed as CNI-1492) | Aβ oligomers by ELISA (final OD) (Aβ42 [4]) | formation of fibrillar aggregates (electron microscopy) (Aβ42 [5]) | protection from Aβ toxicity (primary neurons)
1 | CC(=NNC(=N)N)c1cc(NC(=O)CCCCCCCCC(=O)Nc2cc(C(C)=NNC(=N)N)cc(C(C)=NNC(=N)N)c2)cc(C(C)=NNC(=N)N)c1.Cl.Cl.Cl.Cl [CNI-1493, N,N′-bis(3,5-diacetylphenyl)decanediamide tetrakis(amidinohydrazone) tetrahydrochloride] | 70 | 57 | 60 | 87% and 86% | significant reduction in microglial activation; also recorded: decrease of F4/80 signal; also recorded: decline of F4/80 in all CNI-1493 animals | not accompanied by reduced levels of APP production | no effect | profound dose-dependent decrease of total Aβ accumulation; also recorded: dose-dependent, dramatic reduction; also recorded: profound dose-dependent decrease of total Aβ secretion | prevents aggregation | reduced recognition by the antibody | prevents aggregation | reduced recognition by the antibody | prevents aggregation | reduced recognition by the antibody | reduced the final OD in the ELISA; also recorded: reduction in recognition of Aβ oligomers | do not form the fibrillar aggregates; also recorded: inhibited Aβ42 oligomer fibrilization | protected the neurons from Aβ toxicity
2 | N=C(N)c1ccc(OCCCCCOc2ccc(C(=N)N)cc2)cc1 [pentamidine, reference compound] |  |  |  |  |  |  |  |  | reduced recognition by the antibody |  | reduced recognition by the antibody |  | reduced recognition by the antibody |  |  |  | 
